pIC50: −log10 of the molar value. ≈ marks a conversion by molar mass, not a printed value. Where two headings read alike, the source gives them in different places.
Columns and labels:
L. amazonensis = conditions: for Mean lesion size (mm) / Mean parasite quantification (per 10^6) in lesion per mg (±SD) / Mean lesion wt (mg) (±SD) / % Variation of lesion wt / % reduction of parasite burden in the lesion: Glucantime 33 mg Sb(v)/kg/day; for Mean lesion wt (mg) (±SD): BALB/c mice n=10; for % Variation of lesion wt / % reduction of parasite burden in the lesion: vs control
[1] = tested on: axenic amastigotes of L. amazonensis (strain MHOM/BR/76/LTB-012); assay: microbe, parasite or virus in culture; conditions: Leishmania amazonensis
L. peruviana LCA08 = assay: Activity against macrophages infected with Leishmania amastigotes; conditions: Leishmania peruviana, Macrophage, read-out: IC50 L. peruviana LCA08; for pIC50: 48 h
L. amazonensis Lma CL1 = assay: as above; conditions: Leishmania amazonensis, Macrophage, 48 h, read-out: IC50 L. amazonensis Lma CL1
Experimental: A cloned line of Leishmania amazonensis(strain MHOM/BR/76/LTB-012) was used in all experiments. Axenically grown amastigote forms of L. amazonensis were maintained by weekly subpassages in MAA/20 medium (Sereno and Lemesre, Antimicrobial Agents and Chemotherapy 41, 972-976 (1997)) at 32±1° C. in 25 cm^2 tissue culture flasks. L. peruviana (strain MHOM/PE/LCA08) and L. braziliensis (strainMHOM/PE/PER006) were maintained in the promastigote stage in a biphasic medium (blood agar with 0.89% NaCl, pH 7.4) at 24° C., with sub-passage every 3 to 4 days. Promastigotes (5×10^6 parasites) were then transferred to 25 cm2 tissue culture flasks containing 5 ml of M199 medium supplemented with 10% foetal bovine serum (FBS), pH 7.4. After 4 days, exponential phase promastigotes were centrifuged for 10 minutes at 1500 g and 4° C. The supernatant was discarded and replaced by fresh M199 medium supplemented with 20% FBS, pH 5.5. Axenic amastigotes transformation was then induced by increasing the temperature to 34° C. and incubating for 96 h (Teixeira et al., Parasitology Research 88, 963-968 (2002)).
Extracted cells were immediately deposited on sterile 4×4 mm cover glasses and placed in each well of a 96-well plate. Plates were incubated for 24 h at 37° C., 5% CO2 to allow cell adhesion (Castillo et al, Journal of Ethnopharmacology 112, 410-414 (2007)). Pre-warmed complete M199 medium was used twice to remove non-adherent cells. A neutral red method (Fautz et al., Mutation Research 253, 173-179 (1991)) was employed to determine cell concentration. Approximately 7×10^4 viable cells were deposited in each well for adhesion.
Infection of macrophages by amastigotes was determined as follows. […] Twelve hours after infection, a solution of the compounds to be tested was added to the cultures at various concentrations and maintained at 37° C. in 5% CO2 for a further forty-eight hours more. The plates were fixed with methanol and stained with 10% Giemsa stain. The percentage of infected macrophages was determined microscopically at 100 times magnification. The number of intracellular amastigotes was determined in 300 cells. Following Delorenzi et al. Antimicrobial Agents and Chemotherapy, 45, 1349-1354 (2001)) the percentage of infection rate (% IR) of each culture was calculated as follows: % IR=100−(infection rate of the treated culture/infection rate of the untreated culture)×100.
All experiments were performed in triplicate. ANOVA was used to test for statistical significance of differences (Epi-Info, Statview student program). The total parasite burden was calculated as a mean number of amastigotes per cells multiplied by the number of infected macrophages.

peritoneal macrophages = assay: Toxicity to peritoneal macrophages (Trypan Blue count); type: cell-based, BALB/C mouse; conditions: Mus musculus, Peritoneal macrophage, 48 h; Table 7; read-out: IC50 Macrophage
L. braziliensis PER006 = assay: Activity against macrophages infected with Leishmania amastigotes; conditions: Leishmania braziliensis, Macrophage, read-out: IC50 L. braziliensis PER006; for pIC50: 48 h
3T3 cells = assay: Cell growth inhibition bioassay (sulforhodamine B); type: cell-based, mouse; conditions: Mus musculus, NIH3T3; 48 h, SRB; read-out: GI50 in indicated cell line: 3T3
How it was run: (§1)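 Cells were exposed to compound alongside matched solvent controls, then stained with sulforhodamine B. Percent growth inhibition was calculated from dye absorbance against the control.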

VERO cells = assay: Cell growth inhibition bioassay (sulforhodamine B); type: cell-based, African Green Monkey; conditions: Chlorocebus sabaeus, Vero; 48 h, SRB; read-out: GI50 in indicated cell line: VERO
How it was run: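 Cytotoxicity is read by sulforhodamine B colorimetry following the Skehan protocol; values are growth inhibition relative to solvent-only wells.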

M. tuberculosis H37Rv = assay: Conventional aerobic (MABA) culture assay, luminescence MIC; type: cell-based, Mycobacterium tuberculosis; conditions: for MIC: Mycobacterium tuberculosis, 168 h, aerobic, 7 days, H37Rv; for Selectivity Index H37Rv: VERO vs MABA MIC
[2] = tested on: axenic amastigotes of L. amazonensis (strain MHOM/BR/76/LTB-012); conditions: Table 8b
[3] = Cytotoxicity VERO cell (Table 6); conditions: African green monkey, VERO cells
[4] = tested on: Trypanosoma cruzi (Tulahuen C4); assay: In vitro anti-T. cruzi activity (β-galactosidase CPRG colorimetric assay in VERO monolayer); type: cell-based; conditions: for Selectivity Index Lab B: IC50, VERO/IC50, T. cruzi; for IC50: Trypanosoma cruzi, TULAHUEN, Vero
MCF-7 cells = assay: Cell growth inhibition bioassay (sulforhodamine B); type: cell-based, human; conditions: Homo sapiens, MCF7; 48 h, SRB; read-out: GI50 in indicated cell line: MCF-7
How it was run: (§2)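 SRB colorimetric read-out; % growth inhibition vs solvent control. Human lines: MCF-7 (breast adenocarcinoma), DU145 (prostate carcinoma), PC3 (prostate adenocarcinoma), H460 (large cell lung cancer).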

M-14 cells = assay: Cell growth inhibition bioassay (sulforhodamine B); type: cell-based, human; conditions: Homo sapiens, M14; 48 h, SRB; read-out: GI50 in indicated cell line: M-14
How it was run: as §1

HT-29 cells = assay: Cell growth inhibition bioassay (sulforhodamine B); type: cell-based, human; conditions: Homo sapiens, HT-29; 48 h, SRB; read-out: GI50 in indicated cell line: HT-29
How it was run: as §1

H460 cells = assay: Cell growth inhibition bioassay (sulforhodamine B); type: cell-based, human; conditions: Homo sapiens, NCI-H460; 48 h, SRB; read-out: GI50 in indicated cell line: H460
How it was run: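 Human cancer cells (MCF-7 breast, DU145 and PC3 prostate, H460 large cell lung) were treated with compounds. Growth relative to solvent control was quantified by SRB protein stain.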

DU145 cells = assay: Cell growth inhibition bioassay (sulforhodamine B); type: cell-based, human; conditions: Homo sapiens, DU-145; 48 h, SRB; read-out: GI50 in indicated cell line: DU145
How it was run: as §2

K562 cells = assay: Cell growth inhibition bioassay (sulforhodamine B); type: cell-based, human; conditions: Homo sapiens, K562; 48 h, SRB; read-out: GI50 in indicated cell line: K562
How it was run: as §1

[5] = Toxicity to peritoneal macrophages (Trypan Blue count); type: cell-based, BALB/C mouse; conditions: BALB/C, mouse, Cytotoxicity Macrophages IC50
[6] = Cytotoxicity on VERO cells (MTT), anti-T. cruzi study; conditions: African green monkey, VERO cells, Cytotoxicity VERO Lab B, Lab B
[7] = compounds 5 mg/kg/day, Glucantime 33 mg/kg/day, intralesional
[8] = 72 h, read-out: IC50 L. amazonensis
[9] = Lab A, read-out: T. cruzi IC50 Lab A
[10] = Lab B, read-out: T. cruzi IC50 Lab B
[11] = after 4 weeks treatment, intralesional, compounds 5 mg/kg/day
[12] = after 7 weeks treatment, intralesional, compounds 5 mg/kg/day

SMILES | pIC50 [1, 8] | pIC50 (L. amazonensis Lma CL1) | GI50 (3T3 cells) [µg/mL] | GI50 (VERO cells) [µg/mL] | MIC (M. tuberculosis H37Rv) [µg/mL] | Selectivity Index H37Rv (M. tuberculosis H37Rv) | pIC50 ([1]; read-out: L. amazonensis IC50) | Selectivity Index [2] | IC50 [3] [µg/mL] | Selectivity Index Lab B ([4]; Lab B) | IC50 [4, 9] [µg/mL] | IC50 [4, 10] [µg/mL] | GI50 (MCF-7 cells) [µg/mL] | GI50 (M-14 cells) [µg/mL] | GI50 (HT-29 cells) [µg/mL] | GI50 (H460 cells) [µg/mL] | GI50 (DU145 cells) [µg/mL] | GI50 (K562 cells) [µg/mL] | IC50 at 48 h [5] [µM] | IC50 [6] [µg/mL] | other results
COCOc1cc(OC)c(C(=O)/C=C/c2ccc3c(c2)OCO3)c(OCOC)c1 [Compound I-45] | 4.93 | 4.62 |  |  |  |  |  |  |  |  |  |  |  |  |  |  |  |  |  |  | cutaneous toxicity (L. amazonensis; at the tested doses (5 mg/kg/day intralesional)): did not exhibit any cutaneous toxicity; Lesion diameter (L. amazonensis; [7]): 4.6 mm; Reduction of parasite burden After 4 weeks (L. amazonensis; [7]): 92%; Reduction of parasite burden After 7 weeks (L. amazonensis; compounds 5 mg/kg/day, Glucantime 33 mg/kg/day, intralesional, after 7 weeks): 35%; pIC50 (L. peruviana LCA08): 4.46; pIC50 (peritoneal macrophages): 3.84; pIC50 (L. braziliensis PER006): 4.76
COc1cccc(/C=N\Nc2ncnc3sc4c(c23)CCCC4)c1 [II-11] |  |  | 6 (≈ 17.7 µM) | 6.2 (≈ 18.3 µM) | 40.4 (≈ 119 µM) | 0.6 | 4.91 | 0.5 | 22.7 (≈ 67.1 µM) | 0.9 | 1.5 (≈ 4.43 µM) | 5.7 (≈ 16.8 µM) | 5 (≈ 14.8 µM) | 48.4 (≈ 143 µM) | 2.5 (≈ 7.39 µM) | 5.5 (≈ 16.3 µM) | 6 (≈ 17.7 µM) | 5.3 (≈ 15.7 µM) | 5.5 | 5 (≈ 14.8 µM) | 
C=CCOc1cc(/C=C/C(=O)c2c(O)cc(O)cc2OC)cc(OCC=C)c1Br [Compound I-42, (2E)-3-(3,5-Bis(2-propenyloxy)-4-bromophenyl)-1-(2,4-dihydroxy-6-methoxyphenyl)-2-propen-1-one] | 5.96 | 5.39 |  |  |  |  |  |  |  |  |  |  |  |  |  |  |  |  |  |  | Reduction of parasite burden (column After 7 weeks, analyzed after 6 weeks treatment) (L. amazonensis; 5 mg/kg/day intralesional, after 6 weeks treatment (footnote d)): 8^d %; Lesion diameter (L. amazonensis; [7]): 4.6 mm; Reduction of parasite burden After 4 weeks (L. amazonensis; [7]): 9%; pIC50 (peritoneal macrophages): 4.94; pIC50 (L. braziliensis PER006): 4.84
C(=N/Nc1ncnc2sc3c(c12)CCCC3)/c1ccc[nH]1 [II-19] |  |  | 0.7 (≈ 2.35 µM) | 0.6 (≈ 2.02 µM) | 6.2 (≈ 20.8 µM) | 0.7 | 5.52 | 1.0 | 4 (≈ 13.5 µM) | 0.1 | 0.6 (≈ 2.02 µM) | 6.8 (≈ 22.9 µM) | 0.1 (≈ 0.336 µM) | 0.7 (≈ 2.35 µM) | 1.1 (≈ 3.7 µM) | 0.5 (≈ 1.68 µM) | 1.4 (≈ 4.71 µM) | 0.6 (≈ 2.02 µM) | 2.9 | 1 (≈ 3.36 µM) | 
Brc1ccccc1/C=N\Nc1ncnc2sc3c(c12)CCCC3 [II-31] |  |  | 4.3 (≈ 11.1 µM) | 2 (≈ 5.16 µM) | 9.4 (≈ 24.3 µM) | 0.8 | 6.30 | 5.8 | 7.7 (≈ 19.9 µM) | 0.8 | 0.8 (≈ 2.07 µM) | 3.6 (≈ 9.29 µM) | 1.7 (≈ 4.39 µM) | 6 (≈ 15.5 µM) | 3.1 (≈ 8 µM) | 3 (≈ 7.75 µM) | 2.8 (≈ 7.23 µM) | 1.2 (≈ 3.1 µM) | 2.9 | 3 (≈ 7.75 µM) | 
COc1cc(O)cc(O)c1C(=O)/C=C/c1ccco1 [Compound I-43, (2E)-1-(2,4-Dihydroxy-6-methoxyphenyl)-3-(2-furanyl)-2-propen-1-one] | 5.34 | 4.77 |  |  |  |  |  |  |  |  |  |  |  |  |  |  |  |  |  |  | pIC50 (L. peruviana LCA08): 4.47; pIC50 (peritoneal macrophages): 3.42; pIC50 (L. braziliensis PER006): 4.52
CCC(CC)=NNc1ncnc2sc3c(c12)CCCC3 [II-48] |  |  | 1.4 (≈ 4.85 µM) | 7.4 (≈ 25.7 µM) | 46.2 (≈ 160 µM) | 0.7 | 5.26 | 8.5 | 32.9 (≈ 114 µM) | 1.0 | 4.8 (≈ 16.6 µM) | 6 (≈ 20.8 µM) | 4.4 (≈ 15.3 µM) | 5.9 (≈ 20.5 µM) | 11.2 (≈ 38.8 µM) | 4.4 (≈ 15.3 µM) | 4.3 (≈ 14.9 µM) | 3.3 (≈ 11.4 µM) | 46.7 | 6 (≈ 20.8 µM) | Mean lesion size (mm) (L. amazonensis; [11]): 2.8 mm; Mean parasite quantification (per 10^6) in lesion per mg (±SD) (L. amazonensis; [11]): 0.60 (±0.44) amastigotes (×10^6)/mg; Mean lesion wt (mg) (±SD) (L. amazonensis; [11]): 38.2 (±11.4) mg; % Variation of lesion wt (L. amazonensis; [11]): 37%; % reduction of parasite burden in the lesion (L. amazonensis; [11]): 65%; Mean lesion size (mm) (L. amazonensis; [12]): 4.9 mm; Mean parasite quantification (per 10^6) in lesion per mg (±SD) (L. amazonensis; [12]): 1.53 (±0.18) amastigotes (×10^6)/mg; Mean lesion wt (mg) (±SD) (L. amazonensis; [12]): 85.0 (±4.5) mg; % Variation of lesion wt (L. amazonensis; [12]): 5%; % reduction of parasite burden in the lesion (L. amazonensis; [12]): 17%; IC50 (L. peruviana LCA08): 2 µg/mL; IC50 (L. braziliensis PER006): 3.2 µg/mL
COc1ccc(/C=C/C(=O)c2c(O)cc(O)cc2OC)c(OC)c1 [Compound I-36, (2E)-1-(2,4-Dihydroxy-6-methoxyphenyl)-3-(2,4-dimethoxyphenyl)-2-propen-1-one] | 5.19 | 4.55 |  |  |  |  |  |  |  |  |  |  |  |  |  |  |  |  |  |  | pIC50 (L. peruviana LCA08): 3.54; pIC50 (peritoneal macrophages): < 3.52; pIC50 (L. braziliensis PER006): 3.63
Oc1ccc(/C=N\Nc2ncnc3sc4c(c23)CCCC4)cc1 [II-09] |  |  | 2.1 (≈ 6.47 µM) | 6.8 (≈ 21 µM) | 23.4 (≈ 72.1 µM) | 0.6 | 4.87 | 4.3 | 14.6 (≈ 45 µM) | 1.1 | 2.6 (≈ 8.01 µM) | 3.7 (≈ 11.4 µM) | 5.5 (≈ 17 µM) | 5.6 (≈ 17.3 µM) | 6.3 (≈ 19.4 µM) | 4.8 (≈ 14.8 µM) | 6.8 (≈ 21 µM) | 5.1 (≈ 15.7 µM) | 57.8 | 4 (≈ 12.3 µM) | 
